Earlier results as cited in patent US11798661B2, “Methods for lowering blood pressure with a dihydropyridine-type calcium channel blocker pharmaceutical composition” (A[…] Limited, priority 2018, dated 2023).

Conditions: co-administration of 240 mL grapefruit juice with a single oral dose of amlodipine 10 mg

effect on the pharmacokinetics of amlodipine: no significant effect
Structure (SMILES): CCOC(=O)C1=C(COCCN)NC(C)=C(C(=O)OC)C1c1ccccc1Cl (racemic) [amlodipine, (RS)-3-ethyl 5-methyl 2-[(2-aminoethoxy)methyl]-4-(2-chlorophenyl)-6-methyl-1,4-dihydropyridine-3,5-dicarboxylate]
